From BindingDB's records for patent US20240252496 (The Children’s Medical Center, 2024)
pIC50: −log10 of the molar value.

How the values were obtained:
Assay in all cases: Conditioned place preference (CPP) assay
Histone deacetylase 2 = Histone deacetylase 2 (Homo sapiens, UniProt Q92769)
Histone deacetylase 3 = Histone deacetylase 3 (Homo sapiens, UniProt O15379)
Histone deacetylase 1 = Histone deacetylase 1 (Homo sapiens, UniProt Q13547)
Chain of Histone deacetylase 1 (Q13547 whole entry): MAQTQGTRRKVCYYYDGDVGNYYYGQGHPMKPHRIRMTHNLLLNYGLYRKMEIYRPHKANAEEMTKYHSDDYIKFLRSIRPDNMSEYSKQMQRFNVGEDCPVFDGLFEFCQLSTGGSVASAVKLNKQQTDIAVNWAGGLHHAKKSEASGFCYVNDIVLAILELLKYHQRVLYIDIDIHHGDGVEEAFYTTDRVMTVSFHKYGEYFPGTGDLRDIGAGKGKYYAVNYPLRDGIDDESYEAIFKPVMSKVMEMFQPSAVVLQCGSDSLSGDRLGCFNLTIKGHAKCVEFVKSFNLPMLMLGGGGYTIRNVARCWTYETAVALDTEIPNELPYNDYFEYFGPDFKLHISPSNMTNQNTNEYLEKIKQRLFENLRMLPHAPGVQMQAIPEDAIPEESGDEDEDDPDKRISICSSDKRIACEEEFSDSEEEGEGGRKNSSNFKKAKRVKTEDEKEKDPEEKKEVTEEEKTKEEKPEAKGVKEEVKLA

Chain of Histone deacetylase 3 (O15379 whole entry): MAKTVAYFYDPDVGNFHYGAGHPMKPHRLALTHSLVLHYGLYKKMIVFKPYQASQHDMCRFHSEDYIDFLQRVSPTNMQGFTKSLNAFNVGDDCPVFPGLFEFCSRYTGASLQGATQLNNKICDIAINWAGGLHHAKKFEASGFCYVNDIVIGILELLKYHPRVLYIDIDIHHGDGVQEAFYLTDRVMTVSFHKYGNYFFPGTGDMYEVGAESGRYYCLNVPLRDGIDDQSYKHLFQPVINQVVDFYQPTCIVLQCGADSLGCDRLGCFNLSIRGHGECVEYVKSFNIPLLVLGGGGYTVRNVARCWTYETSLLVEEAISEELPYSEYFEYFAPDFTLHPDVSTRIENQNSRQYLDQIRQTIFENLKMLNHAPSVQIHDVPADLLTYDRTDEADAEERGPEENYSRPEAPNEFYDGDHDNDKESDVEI
Chain of Histone deacetylase 2 (Q92769 whole entry): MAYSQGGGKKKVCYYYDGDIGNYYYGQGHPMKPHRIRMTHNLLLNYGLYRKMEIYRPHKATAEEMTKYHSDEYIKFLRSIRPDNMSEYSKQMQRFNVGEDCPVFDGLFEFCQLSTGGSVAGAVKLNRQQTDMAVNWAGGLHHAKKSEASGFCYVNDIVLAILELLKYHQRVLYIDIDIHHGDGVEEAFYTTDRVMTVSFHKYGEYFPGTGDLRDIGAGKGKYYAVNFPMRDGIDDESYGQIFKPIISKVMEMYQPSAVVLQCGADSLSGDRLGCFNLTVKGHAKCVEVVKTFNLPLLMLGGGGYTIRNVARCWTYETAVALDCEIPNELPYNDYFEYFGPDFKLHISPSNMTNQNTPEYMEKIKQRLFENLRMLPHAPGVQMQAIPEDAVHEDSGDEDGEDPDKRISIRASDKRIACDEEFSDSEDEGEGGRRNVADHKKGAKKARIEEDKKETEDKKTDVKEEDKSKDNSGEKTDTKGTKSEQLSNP

- pIC50 (Histone deacetylase 2): 6.28
- pIC50 (Histone deacetylase 3): 6.07
- pIC50 (Histone deacetylase 1): 6.57
Structure (SMILES): COC(c1ccc(F)cc1)(c1ccc(F)cc1)c1ccc(C(=O)NCCCCCCC(=O)NO)cc1 [US20240252496, Example ACY-257]
